In patent publication US20230065562A1, “DUAL CONTROLS FOR THERAPEUTIC CELL ACTIVATION OR ELIMINATION” (Bellicum Pharmaceuticals, Inc., priority 2015, published 2023):

How the values were obtained:
non-transduced cells = test: AP20187 on non-transduced cells (annexin V/7-AAD viability); format: cell-based, human
Method: Suicide gene functionality was assessed by adding a small molecule synthetic homodimerizer, AP20187 (Ariad Pharmaceuticals; Cambridge, Mass.), at 10 nM final concentration the day following CD19 immunomagnetic selection. Cells were stained with annexin V and 7-amino-actinomycin (7-AAD)(BD Pharmingen) at 24 hours and analyzed by flow cytometry. Cells negative for both annexin V and 7-AAD were considered viable, cells that were annexin V positive were apoptotic, and cells that were both annexin V and 7-AAD positive were necrotic. The percentage killing induced by dimerization was corrected for baseline viability as follows: Percentage killing=100%−(% Viability in AP20187-treated cells÷% Viability in nontreated cells).
The day following immunomagnetic selection, 10 nM of the chemical inducer of dimerization, AP20187, was added to induce apoptosis, which appeared within 24 hours. […] Killing efficiency after correction for baseline viability was about 92.9%±3.8%. Large-scale CD19 selection produced cells that were killed with similar efficiency as small-scale selection: mean viability with and without AP20187, and percentage killing, in large and small scale were about 3.9%, about 84.0%, about 95.4% (n=3) and about 6.6%, about 79.3%, about 91.4% (n=5) respectively. […]

[1] = system: iCasp9M.IRES.IL-12-transduced EBV-CTLs; test: IL-12 ELISA of iCasp9M.I.IL-12-transduced EBV-CTL supernatant; format: cell-based, human; settings: 10 nM CID; detection limit 7.8 pg/mL
Method: The concentration of interferon-[…] (IFN-[…]), IL-2, IL-4, IL-5, IL-10, and tumor necrosis factor-[…] (TNF[…]) in CTL culture supernatants was measured using the Human Th1/Th2 cytokine cytometric Bead Array (BD Pharmingen) and the concentration of IL-12 in the culture supernatants was measured by enzyme-linked immunosorbent assay (ELISA; R&D Systems, Minneapolis, Minn.) according to the instructions of the manufacturer.
To determine whether iCasp9M could effectively destroy cells genetically modified to express an active transgene product, the ability of iCasp9M to eliminate EBV-CTLs stably expressing IL-12 was measured. While IL-12 was undetectable in the supernatant of nontransduced and iCasp9M.IRES.GFP-transduced CTLs, the supernatant of iCasp9M.IRES.IL-12-transduced cells contained 324 pg/mL to 762 pg/mL IL-12. After administration of 10 nM CID, however, the IL-12 in the supernatant fell to undetectable levels (<7.8 pg/mL). Thus, even without prior sorting for high transgene expressing cells, activation of iCasp9M is sufficient to completely eliminate all T cells producing biologically relevant levels of IL-12. […] Three days after a second antigenic stimulation, the levels of IL-12 in the culture supernatant were measured by IL-12 ELISA (detection limit of this assay is 7.8 pg/mL). […]

[2] = system: luciferase-expressing U266 myeloma cells; test: NSG mice engrafted with U266 myeloma cells, iMC-PRAME TCR T cells with rimiducid; format: in vivo, mouse
Method: FIG. 121: (A) NSG mice were engrafted with 1×10^6 luciferase-expressing U266 myeloma cells and treated with […] non-transduced, PRAME TCR- or iMC-PRAME TCR-transduced T cells on day 13. […] (B) Tumor growth was measured by bioluminescence imaging.

transduced T cells = test: T cell caspase assay (IncuCyte, caspase 3/7 green reagent); format: cell-based, human
Method: To enable detection of apoptosis using the IncuCyte instrument, 2 μM of IncuCyte™ Kinetic Caspase-3/7 Apoptosis reagent (Essen Bioscience, 4440) were add to each well to reach a total volume of 200 μl. The plates were centrifuged for 5 min at 400×g and placed inside the IncuCyte (Dual Color Model 4459) to monitor green fluorescence every 2-3 hours for a total of 48 hours at 10× objective. Image analysis was performed using the “Tcells_caspreagent_phase_green_10×_MLD” processing definition. The “Total Green Object Integrated Intensity” metric is used to quantify caspase activation. Each condition was performed in duplicates and each well was imaged at 4 different locations.
To enable detection of apoptosis using the IncuCyte instrument, 2 μM of IncuCyte™ Kinetic Caspase-3/7 Apoptosis reagent (Essen Bioscience, 4440) was added to each well to reach a total volume of 200 μl. The plates were centrifuged for 5 min at 400×g and placed inside the IncuCyte (Dual Color Model 4459) to monitor green fluorescence every 2-3 hours for a total of 48 hours at 10× objective. Image analysis was performed using the “Tcells_caspreagent_phase_green_10×_MLD” processing definition. The “Total Green Object Integrated Intensity” metric and the “Phase Object Confluence (Percent)” were used to quantify caspase activation. Each condition was performed in duplicate and each well was imaged at 4 different locations.

iRC9 = biological target: T1, iRC9 (Homo sapiens, UniProt P42345+P62942); test: Incucyte/casp3/7 and SEAP assays in transfected 293 cells (FIG. 107); format: cell-based
T1 construct: expressed in transfected cells; host or cells: 293 cells
Method: FIG. 107. […] 293 cells were seeded at 300,000 cells/well in a 6-well plate and allowed to grow for 2 days. After 48 h, cells were transfected with 1 μg of experimental plasmids. Cells were harvested 48 h after transfection and diluted 2.5× their original volume.

iC9 (pBP220) = iC9 (pBP220) (Homo sapiens, UniProt P62942, F37V); test: SRα-SEAP assay of drug specificity, iC9 switch, 293 cells; settings: SRα-SEAP reporter, FIG. 108A
Chain of iC9 (pBP220) (P62942 2-108 F37V): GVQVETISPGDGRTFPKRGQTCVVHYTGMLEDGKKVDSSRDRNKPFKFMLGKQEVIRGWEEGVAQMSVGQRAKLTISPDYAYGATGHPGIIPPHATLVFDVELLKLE
Chain of iC9 (pBP220) (P55211 135-416 partner limits assumed): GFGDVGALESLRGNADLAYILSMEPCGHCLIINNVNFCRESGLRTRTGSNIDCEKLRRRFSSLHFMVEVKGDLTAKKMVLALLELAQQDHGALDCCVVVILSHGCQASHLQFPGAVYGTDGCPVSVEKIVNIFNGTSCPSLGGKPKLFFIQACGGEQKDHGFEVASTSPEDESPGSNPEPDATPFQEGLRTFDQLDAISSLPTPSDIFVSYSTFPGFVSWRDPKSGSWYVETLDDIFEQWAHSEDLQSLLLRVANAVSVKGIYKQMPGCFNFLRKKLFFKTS

T1 sequence (P42345 2025-2113): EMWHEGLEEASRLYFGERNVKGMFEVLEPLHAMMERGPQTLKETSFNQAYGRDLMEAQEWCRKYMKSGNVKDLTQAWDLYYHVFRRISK
T1 sequence (P62942 2-107): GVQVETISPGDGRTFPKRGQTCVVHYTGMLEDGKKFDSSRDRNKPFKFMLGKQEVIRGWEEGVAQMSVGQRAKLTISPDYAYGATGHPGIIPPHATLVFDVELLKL
T1 sequence (P55211 135-416 partner limits assumed): as the sequence (P55211 135-416 partner limits assumed) above

Row | Compound | toxicity to non-transduced cells (non-transduced cells) | viability with AP20187 (non-transduced cells; non-transduced cells (n=6)) | IL-12 in the supernatant after CID [1] [pg/mL] | number of Vβ1+CD8+ T cells in spleen ([2]; 5 mg/kg rimiducid i.p. weekly day 14 to 38, spleens day 94, FIG. 121C) | anti-tumor efficacy of TCR-modified T cells with rimiducid-driven iMC activation ([2]; summary, in vitro and in vivo) | dimerization/activation of FKBP.FRB.Δcasp9 (iRC9) (transduced T cells; 20 nM rimiducid) | concentration at which iC9 was observed to be activated (transduced T cells; MC-Rap + CAR + iC9 constructs) [µM] | rimiducid concentration required to activate iRC9 (iRC9) [nM] | activation of the iC9 switch (iC9 (pBP220))
1 | CC[C@H](C(=O)N1CCCC[C@H]1C(=O)O[C@H](CCc1ccc(OC)c(OC)c1)c1cccc(OCC(=O)NCC(CNC(=O)COc2cccc([C@@H](CCc3ccc(OC)c(OC)c3)OC(=O)[C@@H]3CCCCN3C(=O)[C@@H](CC)c3cc(OC)c(OC)c(OC)c3)c2)CN(C)C)c1)c1cc(OC)c(OC)c(OC)c1 [AP20187] | non-toxic | about 86%±9 | < 7.8 |  |  |  |  |  | 
2 | CC[C@H](C(=O)N1CCCC[C@H]1C(=O)O[C@H](CCc1ccc(OC)c(OC)c1)c1cccc(OCC(=O)NCCNC(=O)COc2cccc([C@@H](CCc3ccc(OC)c(OC)c3)OC(=O)[C@@H]3CCCCN3C(=O)[C@@H](CC)c3cc(OC)c(OC)c(OC)c3)c2)c1)c1cc(OC)c(OC)c(OC)c1 [rimiducid] |  |  |  | significantly increased | improved anti-tumor efficacy | unable to induce dimerization | < 100 | > 100 | can activate
